The record followed here is US11597729B2, “Tropomyosin receptor kinase inhibitor, preparation method therefor and use thereof” (JIANGSU VCARE PHARMATECH CO., LTD., priority 2018, dated 2023).

The target in one data set is TrkB (Homo sapiens, UniProt Q16620). The data set is described as follows: Inhibitory activity test for Trk kinases (γ-33P-ATP isotope test), TrkB. The conditions noted are these: 33P-ATP 10 μM, 2 h reaction; read-out: Kinase IC50 TrkB. It is filed as biochemical. The procedure: (§1) Inhibitory Activity Test for Trk Kinases
(§2) In this experiment, the γ-^33P-ATP isotope test was used to test the inhibition effect of a compound on kinases TrkA, TrkB and TrkC, and the half maximal inhibitory concentration IC50 of the inhibitory activity of the compound on the enzymes was obtained.
(§3) A compound was dissolved in 100% DMSO to a particular concentration, and then the resulting solution was gradient-diluted by an automatic loading device to different concentrations of the test samples (DMSO dissolving solutions).
(§4) 3.1. The reaction substrate was diluted using the base reaction buffer;
(§5) 3.2. The kinase was added into the substrate solution and mixed gently and uniformly;
(§6) 3.3. The compounds of different concentrations diluted in 100% DMSO were added into the kinase solution using an automatic loading system, and incubated for 20 min at room temperature;
(§7) 3.4. ^33P-ATP (10 μM, 10 μCi/μl) was added at room temperature to initiate the kinase reaction, and the reaction was carried out for 2 h.
(§8) The reaction solution was subjected to an ion exchange filtration system to remove unreacted ATP and the generated ADP ions during the reaction. Then, the radiometric quantity of ^33P isotope in the substrate was detected.
(§9) The kinase activity in the system with the addition of the inhibitors of different concentrations was calculated from the radiometric quantity, to obtain the inhibitory effect of the compounds with different concentrations on the kinase activity. Fitting was performed using graphpad prism to obtain IC50 values of the compounds for inhibition.

The next data set deals with BaF3-tel-NTRK1. Briefly: Growth inhibition test, CellTiter-Glo, tel-NTRK1-BaF3 cells. It is filed as cell-based. As to conditions: 72 hours incubation, read-out: Cell GI50 BaF3-tel-NTRK1. The procedure: (§10) Growth Inhibition Test for Tel-NTRK1-BaF3 and BaF3-LMNA-NTRK1 Cells
(§11) In this experiment, the CellTiter-Glo cell proliferation fluorescence assay was used to test the growth inhibitory effect of a compound on tel-NTRK1-BaF3 and BaF3-LMNA-NTRK1 transgenic cells, and the half maximal growth inhibitory concentration GI50 of the compound on the cells was obtained.
A compound to be tested was dissolved in DMSO to formulate 10 mM of a mother solution. The mother solution was 3× diluted to 10 mM, 3.333 mM, 1.111 mM, 0.370 mM, 0.123 mM, 0.041 mM, 0.014 mM, 0.005 mM, and 0.002 mM. The prepared solutions were each stored in a 0.5 ml sterilized dorft tube (Corning, USA). In addition, an equal volume of DMSO solvent was used as a blank control. With 10 concentration gradients, the plate was stored in vacuum at −20° C.
The tel-NTRK1-BaF3 and BaF3-LMNA-NTRK1 cell lines were cultured with RPMI 1640 (Corning, N.Y., USA)+10% fetal bovine serum (Gibico, Invitrogen, USA). After the cells were thawed, they were cultured for two generations to be tested.
(§12) Logarithmic growth phase cells (2000-2500 cells/well) were inoculated in a 12×8 96-well white opaque cell culture plate (Corning 3570, NY, USA) in a volume of 100 μL per well, and a drug was added to the cell plate (0.1 μL/well) at the final concentration of the compound of 10 μM, 3.3 μM, 1.1 μM, 0.37 μM, 0.12 IM, 0.04 μM, 0.014 IM, 0.005 μM, and 0.002 μM (0.4 uL of the drug solution was added to 400 ul of the cell homogenate, and then mixed uniformly, and the resulting mixture was added at 100 ul per well). The plate was incubated at 37° C. in a 5% CO2 incubator for 72 hours, and then 20 μL CellTiter-Glo cell proliferation fluorescence assay reagent was added. The plate was allowed to stand for 10 min, and read in the Envision Plate-Reader. […]
A corresponding […] value RLU of each well was obtained by reading in the Envision Plate-reader. […]
The biochemical activity of the compounds of the present invention was determined by the above experiment, and the measured GI50 values are shown in table 2: […]
Background: In ATP-based viability assays light output follows the ATP content of the culture.

The target of another data set is TrkA (Homo sapiens, UniProt P04629). The data set is described as follows: Inhibitory activity test for Trk kinases (γ-33P-ATP isotope test), TrkA. The class given is biochemical. As to conditions: 33P-ATP 10 μM, 2 h reaction; read-out: Kinase IC50 TrkA. The procedure:
as §1, §2, §3, §4, §5, §6, §7, §8, §9

Another data set addresses TrkC (Homo sapiens, UniProt Q16288). Briefly: Inhibitory activity test for Trk kinases (γ-33P-ATP isotope test), TrkC. The class given is biochemical. The conditions noted are these: 33P-ATP 10 μM, 2 h reaction; read-out: Kinase IC50 TrkC. The procedure: as §1, §2, §3, §4, §5, §6, §7, §8, §9
Data set [1] in a line: Metabolic stability in human liver microsomes. The conditions noted are these: for Remaining % (60 min) / microsomal CLint at 1 μmol/L: human liver microsomes 0.5 mg/mL, compound 1 μmol/L; for Remaining % (60 min): 37° C.; for Negative control Remaining % (60 min): human liver microsomes, negative control incubation; for half-life at 1 μmol/L: human, liver microsomes; for half-life at 1 μmol/L / microsomal CLint at 1 μmol/L: pH 7.4; for microsomal CLint at 1 μmol/L: read-out: Clint (μL/min/mg protein). The class given is in vitro ADME. The procedure:
Testing on Metabolic Stability of Compounds in Human Liver Microsomes
The total volume of an incubation system was 250 μL, and 50 mmol/L PBS buffer (pH=7.4) was used to prepare incubation solutions of liver microsomes from various species with a protein concentration of 0.5 mg/mL. Before the start of the incubation, 2.5 μL of a 100 μmol/L compound to be tested was mixed with 197.5 μL of the above incubation solution, pre-incubated in a 37° C. water bath for 5 min, and then added with a 50 μL reducing coenzyme II solution (5 mmol/L) that was likewise pre-incubated for 5 min to start the reaction (in the reaction system, the protein content of liver microsomes from various species was 0.5 g/L, and the final concentration of the compound to be tested was 1 μmol/L), incubated in a 37° C. water bath with shaking, and taken out at 0, 5, 15, 30, and 60 min. 600 μL of a methanol solution of mixed positive and negative internal standards with internal standards Terfenadine (positive ion internal standard, 25 ng/mL) and Tolbutamide (negative ion internal standard, 50 ng/mL) was immediately added to terminate the reaction. The incubation solution after termination was shaken for 2 min and centrifuged (4° C., 16000 r/min) for 10 min, and the supernatant was taken for LC-MS/MS detection to quantitatively analyze the remaining amount of the parent drug. (DMSO<0.1%).
The concentration of the compound at 0 min incubation was regarded as 100%, and the concentrations at other incubation time points were converted into the remaining percentages. The natural logarithm of the remaining percentage at each time point was linearly regressed against the incubation time, and the slope k was calculated. According to the formula T1/2=−0.693/k, the in vitro half-life was calculated. Clearance in liver microsomes (CLint (μL/min/mg protein)=Ln (2)*1000/T1/2 (min)/Protein Conc(mg/ml)).
Test data of metabolic stability of the compounds of the present invention in human liver microsomes are listed in detail in table 3: […]
(Liver microsomes are vesicles of endoplasmic reticulum, rich in cytochrome P450 enzymes.)

A further data set deals with BaF3-LMNA-NTRK1. The data set is described as follows: Growth inhibition test, CellTiter-Glo, BaF3-LMNA-NTRK1 cells. The class given is cell-based. The conditions noted are these: 72 hours incubation, read-out: Cell GI50 BaF3-LMNA-NTRK1. The procedure:
as §10, §11
A compound to be tested was dissolved in DMSO to formulate 10 mM of a mother solution. The mother solution was 3× diluted to 10 mM, 3.333 mM, 1.111 mM, 0.370 mM, 0.123 mM, 0.041 mM, 0.014 mM, 0.005 mM, and 0.002 mM. The prepared solutions were each stored in a 0.5 ml sterilized dorft tube (Corning, USA). […]
as §12, with “added.” for “added. The plate was allowed to stand for 10 min, and read in the Envision Plate-Reader.”

Broadly, the IC50 is the midpoint of a concentration-inhibition curve. Broadly, the GI50 is the concentration that inhibits growth by half. As a reminder, the half-life is how long it takes for the measured level to halve. Low values mean fast loss, high ones slow loss.

TrkA, sequence (P04629 33-796, species assumed): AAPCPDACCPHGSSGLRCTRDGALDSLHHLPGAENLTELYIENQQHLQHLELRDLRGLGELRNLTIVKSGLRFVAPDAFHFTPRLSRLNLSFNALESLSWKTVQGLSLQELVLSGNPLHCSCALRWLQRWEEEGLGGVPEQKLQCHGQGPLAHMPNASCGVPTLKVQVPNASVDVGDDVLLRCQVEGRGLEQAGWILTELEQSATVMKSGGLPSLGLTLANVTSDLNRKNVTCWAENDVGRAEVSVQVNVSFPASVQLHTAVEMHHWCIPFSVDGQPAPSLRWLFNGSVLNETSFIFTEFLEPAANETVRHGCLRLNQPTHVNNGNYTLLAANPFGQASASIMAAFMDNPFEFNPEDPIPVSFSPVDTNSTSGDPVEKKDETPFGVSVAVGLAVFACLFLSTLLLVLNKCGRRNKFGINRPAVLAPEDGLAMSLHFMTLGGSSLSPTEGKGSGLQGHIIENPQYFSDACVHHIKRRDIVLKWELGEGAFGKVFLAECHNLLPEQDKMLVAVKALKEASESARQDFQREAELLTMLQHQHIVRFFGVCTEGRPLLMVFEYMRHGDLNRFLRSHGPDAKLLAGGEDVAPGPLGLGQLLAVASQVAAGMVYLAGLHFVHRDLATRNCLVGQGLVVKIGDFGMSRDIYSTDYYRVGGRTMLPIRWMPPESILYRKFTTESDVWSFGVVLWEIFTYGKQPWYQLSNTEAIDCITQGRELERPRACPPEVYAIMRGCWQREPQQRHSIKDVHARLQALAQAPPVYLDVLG
TrkC, sequence (Q16288 32-839, species assumed): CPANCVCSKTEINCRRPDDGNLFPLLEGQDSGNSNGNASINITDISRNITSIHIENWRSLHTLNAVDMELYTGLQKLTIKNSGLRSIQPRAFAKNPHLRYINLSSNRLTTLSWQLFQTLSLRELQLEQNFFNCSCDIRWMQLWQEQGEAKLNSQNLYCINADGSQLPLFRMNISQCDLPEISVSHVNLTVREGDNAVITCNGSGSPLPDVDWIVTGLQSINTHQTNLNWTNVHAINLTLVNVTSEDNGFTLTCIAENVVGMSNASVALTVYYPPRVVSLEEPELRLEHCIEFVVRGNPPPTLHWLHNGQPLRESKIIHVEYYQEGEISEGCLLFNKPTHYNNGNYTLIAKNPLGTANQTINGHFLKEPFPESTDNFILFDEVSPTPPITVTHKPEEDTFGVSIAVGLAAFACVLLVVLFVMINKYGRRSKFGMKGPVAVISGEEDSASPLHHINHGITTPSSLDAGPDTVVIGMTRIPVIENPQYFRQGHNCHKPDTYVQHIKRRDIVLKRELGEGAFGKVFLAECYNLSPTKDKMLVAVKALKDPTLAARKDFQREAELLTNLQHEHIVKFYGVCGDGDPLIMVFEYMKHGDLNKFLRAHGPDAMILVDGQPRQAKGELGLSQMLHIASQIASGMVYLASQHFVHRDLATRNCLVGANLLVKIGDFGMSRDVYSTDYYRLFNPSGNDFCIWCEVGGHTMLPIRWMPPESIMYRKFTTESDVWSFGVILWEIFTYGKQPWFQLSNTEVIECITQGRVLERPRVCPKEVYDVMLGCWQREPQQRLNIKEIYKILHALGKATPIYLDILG
TrkB, sequence (Q16620 32-822, species assumed): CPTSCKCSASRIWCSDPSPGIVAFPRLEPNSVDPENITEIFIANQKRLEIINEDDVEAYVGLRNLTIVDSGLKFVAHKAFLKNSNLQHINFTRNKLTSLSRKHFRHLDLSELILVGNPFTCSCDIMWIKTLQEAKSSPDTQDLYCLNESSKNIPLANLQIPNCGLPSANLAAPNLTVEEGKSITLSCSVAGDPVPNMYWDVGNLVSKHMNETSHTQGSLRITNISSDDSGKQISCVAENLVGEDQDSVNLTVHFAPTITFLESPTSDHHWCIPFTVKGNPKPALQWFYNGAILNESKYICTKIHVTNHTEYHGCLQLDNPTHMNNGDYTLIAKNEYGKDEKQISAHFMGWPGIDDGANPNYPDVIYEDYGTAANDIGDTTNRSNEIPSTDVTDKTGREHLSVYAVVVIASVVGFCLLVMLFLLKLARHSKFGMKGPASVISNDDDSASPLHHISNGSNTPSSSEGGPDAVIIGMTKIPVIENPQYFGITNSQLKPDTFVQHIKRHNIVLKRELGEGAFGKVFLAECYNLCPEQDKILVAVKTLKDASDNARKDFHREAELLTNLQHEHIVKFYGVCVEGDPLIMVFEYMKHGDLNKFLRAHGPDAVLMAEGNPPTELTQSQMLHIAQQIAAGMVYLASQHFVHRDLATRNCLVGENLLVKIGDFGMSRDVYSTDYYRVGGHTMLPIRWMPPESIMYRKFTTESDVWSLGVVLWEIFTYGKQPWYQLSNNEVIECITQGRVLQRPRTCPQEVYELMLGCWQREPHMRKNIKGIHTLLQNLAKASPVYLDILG

Take `O=C1NN(C2CC2)CCc2ncc(F)cc2[C@H]2CCCN2c2ccn3ncc1c3n2` [Example 1, (R,I^3E,I^4E)-6-cyclopropyl-3^5-fluoro-6,7-diazepine-1(5,3)-pyrazolo[1,5-a]pyrimidine-3(3,2)-pyridine-2(1,2)-pyrrolidine cyclooctane-8-one]: the IC50 on TrkB was 0.57 nM. Moreover, the GI50 with BaF3-tel-NTRK1 amounted to 12 nM. Further, on TrkA, the IC50 amounted to 4.23 nM. Further, the IC50 on TrkC turned out to be 0.25 nM. In addition, in data set [1], the “Remaining % (60 min)” value was found to be 52.26%, the “Negative control Remaining % (60 min)” value was determined as 98.1%, the half-life at 1 μmol/L worked out at 1.11 h and the microsomal CLint at 1 μmol/L was found to be 20.8 µL/min/mg. In the data set with BaF3-LMNA-NTRK1, the GI50 came to 15.1 nM.

Regarding `O=C(Nc1cnn2ccc(N3CCC[C@@H]3c3cc(F)ccc3F)nc12)N1CC[C@H](O)C1` [LOXO-101, reference compound], the GI50 in the data set on BaF3-tel-NTRK1 was found to be 24.6 nM. In data set [1], the “Remaining % (60 min)” value was 47.78%, the “Negative control Remaining % (60 min)” value is listed as 95.9%, the half-life at 1 μmol/L came to 0.987 h and the microsomal CLint at 1 μmol/L was 23.4 µL/min/mg. Further, the GI50 in the data set on BaF3-LMNA-NTRK1 amounted to 35.7 nM.
